{
  "source": "patent US20260000642A1",
  "about": "(Tay Therapeutics Limited, priority 2022, published 2026)",
  "system": "collagen-induced arthritis in Lewis rats",
  "experiment": "Collagen-induced arthritis (CIA) model in rats: body weight, paw volume, clinical scores, clinical observations; for Detailed Clinical Scores, left forelimb: key of the grades not given here; for Detailed Clinical Scores, left hind limb: key of the grades not given here; for Detailed Clinical Scores, right forelimb: key of the grades not given here; for Detailed Clinical Scores, right hind limb: key of the grades not given here; for Detailed Clinical Scores, score: key of the grades not given here",
  "conditions": "for Detailed Clinical Scores, left forelimb / Detailed Clinical Scores, right forelimb / Detailed Clinical Scores, right hind limb / Detailed Clinical Scores, left hind limb / Detailed Clinical Scores, score: CIA, per animal ID",
  "note": "Values joined by “and” are separate entries in the source; they are usually repeats but may differ in a detail not shown here. Identical values can stand only once.",
  "data": [
    {"smiles": "CNC(=O)c1[nH]c(C(=O)NC2CCC2)cc1O[C@@H](C)c1ccccc1", "note": "[Example 101, N^5-cyclobutyl-N^2-methyl-3-(1-phenylethoxy)-1H-pyrrole-2,5-dicarboxamide]", "values": [
      {"measurement": "Average animal body weight percent change", "setting": "Day 5, CIA + 3 mg/kg", "result": 1.81, "unit": "%"},
      {"measurement": "Mean animal body weight", "setting": "Day 5, CIA + 3 mg/kg", "result": 168, "unit": "g"},
      {"measurement": "Average animal body weight percent change", "setting": "Day 5, CIA + 10 mg/kg", "result": 1.43, "unit": "%"},
      {"measurement": "Mean animal body weight", "setting": "Day 5, CIA + 10 mg/kg", "result": 165, "unit": "g"},
      {"measurement": "Average animal body weight percent change", "setting": "Day 5, CIA + 30 mg/kg", "result": 0.90, "unit": "%"},
      {"measurement": "Mean animal body weight", "setting": "Day 5, CIA + 30 mg/kg", "result": 163, "unit": "g"},
      {"measurement": "Detailed Clinical Scores, left forelimb", "setting": "Day 6, 3 mg/kg", "result": 0},
      {"measurement": "Detailed Clinical Scores, right forelimb", "setting": "Day 6, 3 mg/kg", "result": 0},
      {"measurement": "Detailed Clinical Scores, right hind limb", "setting": "Day 6, 3 mg/kg", "result": 0},
      {"measurement": "Detailed Clinical Scores, left forelimb", "setting": "Day 6, 10 mg/kg", "result": 0},
      {"measurement": "Detailed Clinical Scores, left hind limb", "setting": "Day 6, 10 mg/kg", "result": 0},
      {"measurement": "Detailed Clinical Scores, right forelimb", "setting": "Day 6, 10 mg/kg", "result": 0},
      {"measurement": "Detailed Clinical Scores, right hind limb", "setting": "Day 6, 10 mg/kg", "result": 0},
      {"measurement": "Detailed Clinical Scores, score", "setting": "Day 6, 10 mg/kg", "result": 0},
      {"measurement": "Detailed Clinical Scores, left forelimb", "setting": "Day 6, 30 mg/kg", "result": 0},
      {"measurement": "Detailed Clinical Scores, left hind limb", "setting": "Day 6, 30 mg/kg", "result": 0},
      {"measurement": "Detailed Clinical Scores, right forelimb", "setting": "Day 6, 30 mg/kg", "result": 0},
      {"measurement": "Detailed Clinical Scores, right hind limb", "setting": "Day 6, 30 mg/kg", "result": 0},
      {"measurement": "Detailed Clinical Scores, score", "setting": "Day 6, 30 mg/kg", "result": 0},
      {"measurement": "Average animal body weight percent change", "setting": "Day 6, CIA + 3 mg/kg", "result": 3.40, "unit": "%"},
      {"measurement": "Mean animal body weight", "setting": "Day 6, CIA + 3 mg/kg", "result": 171, "unit": "g"},
      {"measurement": "Average animal body weight percent change", "setting": "Day 6, CIA + 10 mg/kg", "result": 1.77, "unit": "%"},
      {"measurement": "Mean animal body weight", "setting": "Day 6, CIA + 10 mg/kg", "result": 165, "unit": "g"},
      {"measurement": "Average animal body weight percent change", "setting": "Day 6, CIA + 30 mg/kg", "result": 0.03, "unit": "%"},
      {"measurement": "Mean animal body weight", "setting": "Day 6, CIA + 30 mg/kg", "result": 162, "unit": "g"},
      {"measurement": "Average animal body weight percent change", "setting": "Day 7, CIA + 3 mg/kg", "result": 4.80, "unit": "%"},
      {"measurement": "Mean animal body weight", "setting": "Day 7, CIA + 3 mg/kg", "result": 173, "unit": "g"},
      {"measurement": "Average animal body weight percent change", "setting": "Day 7, CIA + 10 mg/kg", "result": 2.23, "unit": "%"},
      {"measurement": "Mean animal body weight", "setting": "Day 7, CIA + 10 mg/kg", "result": 166, "unit": "g"},
      {"measurement": "Average animal body weight percent change", "setting": "Day 7, CIA + 30 mg/kg", "result": 0.29, "unit": "%"},
      {"measurement": "Mean animal body weight", "setting": "Day 7, CIA + 30 mg/kg", "result": 162, "unit": "g"},
      {"measurement": "Average animal body weight percent change", "setting": "Day 8, CIA + 3 mg/kg", "result": 4.69, "unit": "%"},
      {"measurement": "Mean animal body weight", "setting": "Day 8, CIA + 3 mg/kg", "result": 173, "unit": "g"},
      {"measurement": "Average animal body weight percent change", "setting": "Day 8, CIA + 10 mg/kg", "result": 2.82, "unit": "%"},
      {"measurement": "Mean animal body weight", "setting": "Day 8, CIA + 10 mg/kg", "result": 167, "unit": "g"},
      {"measurement": "Average animal body weight percent change", "setting": "Day 8, CIA + 30 mg/kg", "result": 1.21, "unit": "%"},
      {"measurement": "Mean animal body weight", "setting": "Day 8, CIA + 30 mg/kg", "result": 164, "unit": "g"},
      {"measurement": "Average animal body weight percent change", "setting": "Day 9, CIA + 3 mg/kg", "result": 5.59, "unit": "%"},
      {"measurement": "Mean animal body weight", "setting": "Day 9, CIA + 3 mg/kg", "result": 174, "unit": "g"},
      {"measurement": "Average animal body weight percent change", "setting": "Day 9, CIA + 10 mg/kg", "result": 4.86, "unit": "%"},
      {"measurement": "Mean animal body weight", "setting": "Day 9, CIA + 10 mg/kg", "result": 170, "unit": "g"},
      {"measurement": "Average animal body weight percent change", "setting": "Day 9, CIA + 30 mg/kg", "result": 2.81, "unit": "%"},
      {"measurement": "Mean animal body weight", "setting": "Day 9, CIA + 30 mg/kg", "result": 166, "unit": "g"},
      {"measurement": "Average animal body weight percent change", "setting": "Day 10, CIA + 3 mg/kg", "result": 6.84, "unit": "%"},
      {"measurement": "Mean animal body weight", "setting": "Day 10, CIA + 3 mg/kg", "result": 176, "unit": "g"},
      {"measurement": "Average animal body weight percent change", "setting": "Day 10, CIA + 10 mg/kg", "result": 4.86, "unit": "%"},
      {"measurement": "Mean animal body weight", "setting": "Day 10, CIA + 10 mg/kg", "result": 170, "unit": "g"},
      {"measurement": "Average animal body weight percent change", "setting": "Day 10, CIA + 30 mg/kg", "result": 2.27, "unit": "%"},
      {"measurement": "Mean animal body weight", "setting": "Day 10, CIA + 30 mg/kg", "result": 166, "unit": "g"},
      {"measurement": "Average animal body weight percent change", "setting": "Day 11, CIA + 3 mg/kg", "result": 7.79, "unit": "%"},
      {"measurement": "Mean animal body weight", "setting": "Day 11, CIA + 3 mg/kg", "result": 178, "unit": "g"},
      {"measurement": "Average animal body weight percent change", "setting": "Day 11, CIA + 10 mg/kg", "result": 5.09, "unit": "%"},
      {"measurement": "Mean animal body weight", "setting": "Day 11, CIA + 10 mg/kg", "result": 171, "unit": "g"},
      {"measurement": "Average animal body weight percent change", "setting": "Day 11, CIA + 30 mg/kg", "result": 2.22, "unit": "%"},
      {"measurement": "Mean animal body weight", "setting": "Day 11, CIA + 30 mg/kg", "result": 165, "unit": "g"},
      {"measurement": "Detailed Clinical Scores, left forelimb", "setting": "Day 12, 3 mg/kg", "result": 0},
      {"measurement": "Detailed Clinical Scores, left hind limb", "setting": "Day 12, 3 mg/kg, 3 mg/kg", "result": 1},
      {"measurement": "Detailed Clinical Scores, right forelimb", "setting": "Day 12, 3 mg/kg, 3 mg/kg", "result": "0 (6×) and 1 (2×)"},
      {"measurement": "Detailed Clinical Scores, left forelimb", "setting": "Day 12, 10 mg/kg", "result": 0},
      {"measurement": "Detailed Clinical Scores, right forelimb", "setting": "Day 12, 10 mg/kg", "result": 0},
      {"measurement": "Detailed Clinical Scores, left hind limb", "setting": "Day 12, 10 mg/kg, 10 mg/kg", "result": "1 (2×) and 0 (2×)"},
      {"measurement": "Detailed Clinical Scores, right hind limb", "setting": "Day 12, 10 mg/kg, 10 mg/kg", "result": "2 and 0 (2×)"},
      {"measurement": "Detailed Clinical Scores, score", "setting": "Day 12, 10 mg/kg, 10 mg/kg", "result": "1 (2×) and 2 and 0"},
      {"measurement": "Detailed Clinical Scores, left forelimb", "setting": "Day 12, 30 mg/kg", "result": 0},
      {"measurement": "Detailed Clinical Scores, left hind limb", "setting": "Day 12, 30 mg/kg", "result": 0},
      {"measurement": "Detailed Clinical Scores, right forelimb", "setting": "Day 12, 30 mg/kg", "result": 0},
      {"measurement": "Detailed Clinical Scores, right hind limb", "setting": "Day 12, 30 mg/kg, 30 mg/kg", "result": "1 and 0 (5×)"},
      {"measurement": "Detailed Clinical Scores, score", "setting": "Day 12, 30 mg/kg, 30 mg/kg", "result": "1 and 0 (4×)"},
      {"measurement": "Average animal body weight percent change", "setting": "Day 12, CIA + 3 mg/kg", "result": 8.18, "unit": "%"},
      {"measurement": "Mean animal body weight", "setting": "Day 12, CIA + 3 mg/kg", "result": 178, "unit": "g"},
      {"measurement": "Average animal body weight percent change", "setting": "Day 12, CIA + 10 mg/kg", "result": 4.18, "unit": "%"},
      {"measurement": "Mean animal body weight", "setting": "Day 12, CIA + 10 mg/kg", "result": 169, "unit": "g"}
    ]}
  ]
}
